In ChEMBL document CHEMBL5528042, “Identification of Novel, Selective Ataxia-Telangiectasia Mutated Kinase Inhibitors with the Ability to Penetrate the Blood-Brain Barrier: The Discovery of AZD1390” (J Med Chem, 2024):
≈ marks a conversion by molar mass, not a printed value.

Columns and labels:
[1] = Lipophilicity, logD of the compound at pH 7.4; type: physicochemical; details: buffer
[2] = Unbound brain to plasma drug concentration ratio in mouse at 50 mg/kg,po administration and measured after 2 hrs; type: ADME, organism-based; details: read-out: K(p,uu,brain)
[3] = Apparent permeability across apical to basolateral side in dog MDCKII-MDR1 cells overexpressing BCRP at 0.1 uM incubated for 90 mins by LC-MS/MS analysis; type: ADME, cell-based, Canis lupus familiaris, MDCK-MDR1
[4] = Intrinsic clearance in rat hepatocyte assessed per 10^6 cells; type: ADME, cell-based; details: hepatocytes, read-out: CLH
[5] = system: MDR1, BCRP; experiment: Efflux ratio of apparent permeability across basolateral to apical side over apical to basolateral side in dog MDCKII-MDR1 cells overexpressing BCRP at 1 uM incubated for 90 mins by LC-MS/MS analysis; type: ADME, cell-based, Canis lupus familiaris, MDCK-MDR1
[6] = Aqueous solubility of the compound in pH 7.4; type: physicochemical; details: buffer
[7] = Intrinsic clearance in human hepatocyte assessed per 10^6 cells; type: ADME, cell-based; details: hepatocytes, read-out: CLH
[8] = system: MDR1, BCRP; experiment: Efflux ratio of apparent permeability across basolateral to apical side over apical to basolateral side in dog MDCKII-MDR1 cells overexpressing BCRP at 0.1 uM incubated for 90 mins by LC-MS/MS analysis; type: ADME, cell-based, Canis lupus familiaris, MDCK-MDR1
[9] = biological target: Serine-protein kinase ATM (Homo sapiens, UniProt Q13315); experiment: Inhibition of ATM in human HT-29 cells incubated for 2 hrs by Alexa Fluor 488/Hoeschst staining based plate reader assay; type: cell-based
[10] = biological target: Serine/threonine-protein kinase ATR (Homo sapiens, UniProt Q13535); experiment: Inhibition of ATR in human HT-29 cells incubated for 2 hrs by Alexa Fluor 488/Hoeschst staining based plate reader assay; type: cell-based
Chain of Serine/threonine-protein kinase ATR (Q13535 whole entry): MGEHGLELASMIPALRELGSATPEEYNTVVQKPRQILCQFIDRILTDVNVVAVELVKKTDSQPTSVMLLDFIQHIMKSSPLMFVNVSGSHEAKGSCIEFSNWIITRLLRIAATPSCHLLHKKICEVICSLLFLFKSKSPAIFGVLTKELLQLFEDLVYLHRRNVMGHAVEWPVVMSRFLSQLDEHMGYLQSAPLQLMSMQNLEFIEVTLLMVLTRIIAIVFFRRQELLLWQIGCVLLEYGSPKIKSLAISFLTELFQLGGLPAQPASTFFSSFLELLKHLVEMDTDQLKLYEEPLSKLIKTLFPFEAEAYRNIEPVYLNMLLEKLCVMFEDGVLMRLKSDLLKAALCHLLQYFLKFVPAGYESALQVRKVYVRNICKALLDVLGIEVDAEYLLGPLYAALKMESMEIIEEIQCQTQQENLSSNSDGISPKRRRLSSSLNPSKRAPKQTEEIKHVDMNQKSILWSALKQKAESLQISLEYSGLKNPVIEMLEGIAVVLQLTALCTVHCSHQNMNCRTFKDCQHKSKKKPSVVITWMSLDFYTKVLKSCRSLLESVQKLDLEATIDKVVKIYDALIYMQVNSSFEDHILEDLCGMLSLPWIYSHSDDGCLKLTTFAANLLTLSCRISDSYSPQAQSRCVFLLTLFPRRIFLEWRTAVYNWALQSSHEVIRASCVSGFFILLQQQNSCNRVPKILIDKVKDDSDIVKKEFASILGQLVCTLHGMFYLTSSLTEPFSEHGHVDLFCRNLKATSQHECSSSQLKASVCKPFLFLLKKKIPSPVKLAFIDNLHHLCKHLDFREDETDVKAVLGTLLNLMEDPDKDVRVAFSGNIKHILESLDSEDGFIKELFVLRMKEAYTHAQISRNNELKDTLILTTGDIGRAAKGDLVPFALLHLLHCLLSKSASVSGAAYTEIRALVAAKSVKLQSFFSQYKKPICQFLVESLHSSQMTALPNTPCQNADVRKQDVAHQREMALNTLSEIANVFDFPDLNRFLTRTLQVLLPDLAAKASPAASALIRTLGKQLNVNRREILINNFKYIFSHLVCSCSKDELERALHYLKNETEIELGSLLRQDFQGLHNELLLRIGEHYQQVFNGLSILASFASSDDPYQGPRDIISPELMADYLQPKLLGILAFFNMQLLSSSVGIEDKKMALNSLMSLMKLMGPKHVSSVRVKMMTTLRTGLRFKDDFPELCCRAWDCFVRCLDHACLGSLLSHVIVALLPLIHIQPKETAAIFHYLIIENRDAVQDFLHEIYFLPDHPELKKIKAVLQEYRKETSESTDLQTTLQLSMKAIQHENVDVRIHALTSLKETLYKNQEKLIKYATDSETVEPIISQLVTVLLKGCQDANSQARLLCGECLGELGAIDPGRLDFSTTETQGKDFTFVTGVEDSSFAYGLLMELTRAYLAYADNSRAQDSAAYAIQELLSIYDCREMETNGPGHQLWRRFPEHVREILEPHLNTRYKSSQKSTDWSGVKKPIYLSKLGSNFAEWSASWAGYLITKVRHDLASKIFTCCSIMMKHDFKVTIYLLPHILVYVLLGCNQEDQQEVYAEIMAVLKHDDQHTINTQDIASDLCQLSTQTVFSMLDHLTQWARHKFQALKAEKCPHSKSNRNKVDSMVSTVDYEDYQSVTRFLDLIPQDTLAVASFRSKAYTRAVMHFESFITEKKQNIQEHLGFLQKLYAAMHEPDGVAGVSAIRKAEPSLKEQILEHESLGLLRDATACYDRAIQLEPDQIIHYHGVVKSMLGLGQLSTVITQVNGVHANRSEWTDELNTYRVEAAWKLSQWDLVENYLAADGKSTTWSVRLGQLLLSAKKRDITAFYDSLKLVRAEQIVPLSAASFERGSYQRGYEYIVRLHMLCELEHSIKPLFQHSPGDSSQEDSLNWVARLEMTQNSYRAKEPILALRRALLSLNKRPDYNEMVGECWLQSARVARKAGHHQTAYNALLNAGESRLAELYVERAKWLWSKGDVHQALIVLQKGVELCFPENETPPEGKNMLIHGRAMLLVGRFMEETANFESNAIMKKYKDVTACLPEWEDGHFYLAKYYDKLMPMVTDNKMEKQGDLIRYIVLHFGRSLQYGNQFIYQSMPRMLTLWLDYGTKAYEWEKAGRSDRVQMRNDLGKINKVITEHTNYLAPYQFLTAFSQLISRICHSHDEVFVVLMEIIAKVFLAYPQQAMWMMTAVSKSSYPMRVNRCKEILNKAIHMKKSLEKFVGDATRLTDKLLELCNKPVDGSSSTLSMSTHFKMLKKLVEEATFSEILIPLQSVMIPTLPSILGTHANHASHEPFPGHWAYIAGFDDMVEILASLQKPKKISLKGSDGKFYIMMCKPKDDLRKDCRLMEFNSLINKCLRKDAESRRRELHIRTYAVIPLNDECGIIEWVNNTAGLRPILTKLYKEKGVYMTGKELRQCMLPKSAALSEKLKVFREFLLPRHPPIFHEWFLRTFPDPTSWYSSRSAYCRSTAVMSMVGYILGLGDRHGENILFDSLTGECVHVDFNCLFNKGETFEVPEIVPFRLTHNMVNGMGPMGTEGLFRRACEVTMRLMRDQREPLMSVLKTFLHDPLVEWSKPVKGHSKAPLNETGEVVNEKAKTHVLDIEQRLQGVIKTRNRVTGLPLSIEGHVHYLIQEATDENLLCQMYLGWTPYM

[11] = Apparent permeability across apical to basolateral side in dog MDCKII-MDR1 cells overexpressing BCRP at 1 uM incubated for 90 mins by LC-MS/MS analysis; type: ADME, cell-based, Canis lupus familiaris, MDCK-MDR1
[12] = Intrinsic clearance in dog hepatocyte assessed per 10^6 cells; type: ADME, cell-based, Canis lupus familiaris; details: hepatocytes, read-out: CLH
[13] = Plasma protein binding in dog assessed as unbound fraction incubated for 16 hrs by equilibrium dialysis based UPLC-MS/MS analysis; type: ADME, cell-free, Canis lupus familiaris
[14] = biological target: Phosphatidylinositol 4,5-bisphosphate 3-kinase catalytic subunit alpha isoform (Homo sapiens, UniProt P42336); experiment: Inhibition of PI3Kalpha in human BT-474 cells incubated for 140 mins by ELISA; type: cell-based
Chain of Phosphatidylinositol 4,5-bisphosphate 3-kinase catalytic subunit alpha isoform (P42336 whole entry, canonical isoform): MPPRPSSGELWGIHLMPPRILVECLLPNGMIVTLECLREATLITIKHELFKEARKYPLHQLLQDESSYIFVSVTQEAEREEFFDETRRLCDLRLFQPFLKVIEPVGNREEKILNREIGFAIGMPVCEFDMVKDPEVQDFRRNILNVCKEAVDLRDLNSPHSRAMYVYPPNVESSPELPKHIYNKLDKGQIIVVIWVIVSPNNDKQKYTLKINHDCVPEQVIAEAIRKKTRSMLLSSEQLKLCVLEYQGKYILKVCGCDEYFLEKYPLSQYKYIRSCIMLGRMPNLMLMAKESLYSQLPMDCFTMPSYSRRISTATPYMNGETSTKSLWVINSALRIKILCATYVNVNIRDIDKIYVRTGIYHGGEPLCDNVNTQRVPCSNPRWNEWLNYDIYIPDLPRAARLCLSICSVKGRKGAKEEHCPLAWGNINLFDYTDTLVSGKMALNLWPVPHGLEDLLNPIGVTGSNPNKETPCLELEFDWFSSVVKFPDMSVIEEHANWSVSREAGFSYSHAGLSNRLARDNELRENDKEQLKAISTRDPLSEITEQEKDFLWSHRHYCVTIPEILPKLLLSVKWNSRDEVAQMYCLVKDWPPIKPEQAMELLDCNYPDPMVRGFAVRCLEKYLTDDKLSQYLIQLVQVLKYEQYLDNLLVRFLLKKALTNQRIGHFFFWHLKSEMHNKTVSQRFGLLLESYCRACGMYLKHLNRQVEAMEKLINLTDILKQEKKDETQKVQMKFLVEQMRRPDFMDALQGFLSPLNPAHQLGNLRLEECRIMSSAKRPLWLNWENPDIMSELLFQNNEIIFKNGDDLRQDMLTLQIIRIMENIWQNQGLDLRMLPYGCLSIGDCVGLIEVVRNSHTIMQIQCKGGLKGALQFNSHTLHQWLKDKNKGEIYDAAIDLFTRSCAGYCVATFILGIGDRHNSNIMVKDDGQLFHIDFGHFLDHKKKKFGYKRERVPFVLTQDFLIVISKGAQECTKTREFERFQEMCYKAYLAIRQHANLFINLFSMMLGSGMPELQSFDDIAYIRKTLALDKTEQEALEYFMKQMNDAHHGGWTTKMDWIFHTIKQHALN

[15] = Half life in dog at 2 mg/kg,po or 1 mg/kg,iv administration measured for 24 hrs by LC-MS/MS analysis; type: ADME, organism-based, Canis lupus familiaris; details: in vivo
[16] = Plasma protein binding in rat assessed as unbound fraction incubated for 16 hrs by equilibrium dialysis based UPLC-MS/MS analysis; type: ADME, cell-free
[17] = Bioavailability in rat at 1 mg/kg,po or 0.5 mg/kg,iv administration measured for 24 hrs by LC-MS/MS analysis; type: ADME, organism-based; details: in vivo
[18] = Dissociation constant, pKa of compound; type: physicochemical
[19] = Volume of distribution at steady state in dog at 2 mg/kg,po or 1 mg/kg,iv administration measured for 24 hrs by LC-MS/MS analysis; type: ADME, organism-based, Canis lupus familiaris; details: in vivo
[20] = biological target: Serine/threonine-protein kinase mTOR (Homo sapiens, UniProt P42345); experiment: Inhibition of mTOR in human MDA-MB-468 cells incubated for 2.5 hrs by Alexa Fluor 488 staining based fluorescence analysis; type: cell-based
[21] = Plasma protein binding in human assessed as unbound fraction incubated for 16 hrs by equilibrium dialysis based UPLC-MS/MS analysis; type: ADME, cell-free
[22] = Half life in rat at 1 mg/kg,po or 0.5 mg/kg,iv administration measured for 24 hrs by LC-MS/MS analysis; type: ADME, organism-based; details: in vivo
[23] = Volume of distribution at steady state in rat at 1 mg/kg,po or 0.5 mg/kg,iv administration measured for 24 hrs by LC-MS/MS analysis; type: ADME, organism-based; details: in vivo
[24] = Intrinsic clearance in human liver microsomes; type: ADME, Microsome; details: read-out: CLH
[25] = Unbound brain to plasma drug concentration ratio in Cynomolgus monkey at iv administered as bolus injection measured at 4 to 90 mins by PET analysis; type: ADME, organism-based, Macaca fascicularis; details: time 4-90 min, read-out: K(p,uu,brain)
[26] = Unbound fraction in Cynomolgus monkey brain at iv administered as bolus injection measured at 4 to 90 mins by PET analysis; type: ADME, organism-based, Macaca fascicularis; details: time 4-90 min
[27] = Unbound fraction in Cynomolgus monkey plasma at iv administered as bolus injection measured at 4 to 90 mins by PET analysis; type: ADME, organism-based, Macaca fascicularis; details: time 4-90 min
[28] = Tmax in Cynomolgus monkey at iv administered as bolus injection measured at 4 to 90 mins by gamma counter analysis; type: ADME, organism-based, Macaca fascicularis; details: in vivo, time 4-90 min
[29] = biological target: DNA-dependent protein kinase catalytic subunit (Homo sapiens, UniProt P78527); experiment: Inhibition of DNA-PK (unknown origin)
[30] = Bioavailability in dog at 2 mg/kg,po or 1 mg/kg,iv administration measured for 24 hrs by LC-MS/MS analysis; type: ADME, organism-based, Canis lupus familiaris; details: in vivo

Row | SMILES | logD [1] | Papp A→B at […], 0.1 µM [3] [×10⁻⁶ cm/s] | hepatocyte CLint [4] [µL/min/1e6 cells] | solubility [6] [µM] | hepatocyte CLint [7] [µL/min/1e6 cells] | IC50 [10] [µM] | Papp A→B at […], 1 µM [11] [×10⁻⁶ cm/s] | pKa [18] | also measured
1 | Cn1c(=O)n(C2CCOCC2)c2c3cc(-c4cccnc4)ccc3ncc21 | 2.2 |  |  |  |  |  |  |  | Kp uu at 2 h [2]: 0.67
2 | CC(C)n1c(=O)n(C)c2cnc3ccc(-c4ccc(N5CC[C@@H](N(C)C)C5)nc4)cc3c21 | 3 |  | 27 | 22 (≈ 9.47 µg/mL) | 4.5 |  | 27 | 7.9 | hepatocyte CLint [12]: 80 µL/min/1e6 cells; fraction unbound at 16 h [13]: 0.26; IC50 [14]: 0.316 µM; half-life [15]: 1.6 h; fraction unbound at 16 h [16]: 0.004; bioavailability [17]: 53%; Vdss [19]: 7.5 L/kg; IC50 [20]: 3.16 µM; fraction unbound at 16 h [21]: 0.07; half-life [22]: 2.9 h; Vdss [23]: 0.6 L/kg
3 | CC(C)n1c(=O)n([11CH3])c2cnc3cc(F)c(-c4ccc(OCCCN(C)C)nc4)cc3c21 |  |  |  |  |  |  |  |  | Kp uu [25]: 0.41; fraction unbound [26]: 0.02; fraction unbound [27]: 0.195; Tmax [28]: 4.5 min
4 | CC(C)n1c(=O)n([11CH3])c2cnc3cc(F)c(-c4ccc(OCCCN5CCCCC5)nc4)cc3c21 |  |  |  |  |  |  |  |  | Kp uu [25]: 0.33; fraction unbound [26]: 0.01; fraction unbound [27]: 0.175; Tmax [28]: 9.3 min
5 | CC(C)n1c(=O)n(C)c2cnc3cc(F)c(-c4ccc(OCCCN5CCCCC5)nc4)cc3c21 [AZD-1390] |  | 17 |  | 693 (≈ 331 µg/mL) |  | > 31.6 | 24 |  | fraction unbound at 16 h [13]: 0.25; IC50 [14]: > 12.6 µM; fraction unbound at 16 h [16]: 0.04; IC50 [9]: 0.000794 µM; bioavailability [17]: 74%; Vdss [19]: 24 L/kg; IC50 [29]: > 31.6 µM; IC50 [20]: > 15.8 µM; fraction unbound at 16 h [21]: 0.26; bioavailability [30]: 66%; Vdss [23]: 3 L/kg

The next lines start with results.

Row | logD [1] | Papp A→B at […], 0.1 µM [3] [×10⁻⁶ cm/s] | hepatocyte CLint [4] [µL/min/1e6 cells] | solubility [6] [µM] | hepatocyte CLint [7] [µL/min/1e6 cells] | IC50 [10] [µM] | Papp A→B at […], 1 µM [11] [×10⁻⁶ cm/s] | pKa [18] | SMILES | also measured
6 | 2 | 24 | 1.8 | 499 (≈ 222 µg/mL) | 2.6 | > 31.6 | 25 |  | CC(C)n1c(=O)n(C)c2cnc3ccc(-c4ccc(OCCCN5CCCC5)nc4)cc3c21 | efflux ratio at […], 1 µM [5]: 0.8; efflux ratio at […], 0.1 µM [8]: 2.6; IC50 [9]: 0.000251 µM
7 | 1.9 | 13 | 14 | 480 (≈ 201 µg/mL) | 5.2 | > 20 | 21 |  | CC(C)n1c(=O)n(C)c2cnc3ccc(-c4ccc(OCCCN(C)C)nc4)cc3c21 | efflux ratio at […], 1 µM [5]: 2.1; efflux ratio at […], 0.1 µM [8]: 6.3
8 | 3 | 19 | 20 | 43 (≈ 19.9 µg/mL) | 7.2 | > 20 |  | 8.1 | CC(C)n1c(=O)n(C)c2cnc3ccc(-c4ccc(OCCCN5CC[C@H](F)C5)nc4)cc3c21 | microsomal CLint [24]: 65 µL/min/mg
9 | 3.3 | 14 | 29 | 15 (≈ 7.16 µg/mL) | 8.5 |  | 13 | 8.5 | CC(C)n1c(=O)n(C)c2cnc3ccc(-c4ccc(OCCCN5CCC(F)CC5)nc4)cc3c21 | microsomal CLint [24]: 100 µL/min/mg
